US4880779A, “Method of prevention or treatment of AIDS by inhibition of human immunodeficiency virus” (priority 1987, dated 1989)
Where a SMILES comes first, the peptide text is derived from it.

Legend:
uninfected RH9 cells = system: uninfected RH9 cells
Description: (§1) The commercially available peptides, carbobenzoxy-D- Phe-L-Phe-Gly (z-PPG) and Phe-Gly-Gly-Phe (PGGP) were obtained from Sigma Chemical Company, St. Louis, MO in granular form. Stock solutions were prepared to 20 mg/ml in dimethyl sulfoxide and stored at 0° C. A line of uninfected human lymphoblasts, RH9, and a line of lymphoblasts persistently infected with human immunodeficiency virus (HIV) were obtained from Dr. Robert Garry of Tulane Medical Center, New Orleans, La. and grown in RPMI medium containing 10% fetal calf serum obtained from Gibco, Grand Island, N.Y.
To test this further incubated cultures of either uninfected RH9 cells, or HIV-infected carrier cultures, were incubated with PGGP for four days.

[1] = system: human immunodeficiency virus (HIV); experiment: HIV-induced cell fusion: RH9 cells mixed with HIV-infected lymphoblasts; type: cell-based; settings: for Polykaryocytes Mean Diameter / Polykaryocytes Per mm^2: RH9 + HIV-RH9; for activity as inhibitor of HIV-induced cell fusion: RH9 + HIV-infected cells
Description: as §1
In the experimental protocol, RH9 cells are pretreated with various concentrations of either z-PPG or PGGP by adding a small aliquot of the peptide/DMSO solution to a suspension culture. After 1 hour, a suspension culture containing one-half the number of HIV-infected cells are added to the RH9-peptide mixture. The mixture is then incubated at 37° C. for 18 hours, and examined periodically for induction of cell fusion in the cell mixture.

## N[C@@H](Cc1ccccc1)C(=O)NCC(=O)NCC(=O)N[C@@H](Cc1ccccc1)C(=O)O [PGGP, Phe-Gly-Gly-Phe] (H-FGGF-OH)
Uninfected RH9 cells
  effect on rate of growth, final cell density or cell viability: no significant effect

## carbobenzoxy-D- Phe-L-Phe-Gly [z-PPG]
[1]; 0.08 M peptide
  Polykaryocytes Mean Diameter: 51 um
  Polykaryocytes Per mm^2: 105 per mm^2
[1]; 0.25 M peptide
  Polykaryocytes Mean Diameter: 37 um
  Polykaryocytes Per mm^2: 59 per mm^2
[1]; 0.8 M peptide
  Polykaryocytes Mean Diameter: 26 um
  Polykaryocytes Per mm^2: 4 per mm^2
[1]; approximtely 1 mM peptide, 1 hour pretreatment of RH9, 18 hours at 37° C.
  inhibition of fusion (phase photomicrographs, FIG. 1): almost complete inhibition of fusion
[1]; inhibition of cell fusion under these experimental conditions, 18 hours
  minimal inhibitory dose: 0.3 mM

## z-Phe-Gly [reference compound]
[1]
  activity as inhibitor of HIV-induced cell fusion: no demonstrable activity

## z-Phe-Leu [x-Phe-Leu, reference compound]
[1]
  activity as inhibitor of HIV-induced cell fusion: no demonstrable activity
[1]; listed as z-Phe-Leu
  activity as inhibitor of HIV-induced cell fusion: ineffective
